The results in this text go back to patent publication US20190142800A1, “SYNERGISTIC ANTIFUNGAL COMPOSITIONS AND METHODS THEREOF” (VYOME THERAPEUTICS LIMITED, priority 2016, published 2019).

The subject of experiment [1] is terbinafine resistant Trichophyton interdigitale (GTB-2S). In words: Checkerboard assay on terbinafine resistant Trichophyton interdigitale (GTB-2S). It is filed as cell-based. Conditions: for MIC: Trichophyton interdigitale. As for the experimental part:
(§1) The synergy is measured by determining the fractional inhibitory concentration (FIC) value of the combination. This experimental set up, called checkerboard method, allows measurement of a desired effect (inhibition of fungal growth in this case) at different combinations of various concentrations of the two agents (antifungal agent and fatty acid/ester). […] No agent is added to the penultimate column on the right and the bottom row. The final column on the right is used for growth control (only inoculum in broth) and sterility control (broth alone, no inoculum). […] FIC values for both agents in a particular well were calculated in this way followed by determination of the FIC index (sum of the FICs of each drug in the concerned well). […] Agents Chemother.
(§2) Using the checkerboard layout experimental setup described above (FIG. 1A), various medium-chain fatty acids were tested for their ability to potentiate the activity of a known antifungal agent. Concentrations above and below the MIC of each test agent were tested using serial dilution. The same procedure was expanded to test combinations of various medium-chain fatty acids C-1 to C-14 (such caprylic acid, undecylenic acid and lauric acid) and esters thereof, with antifungal agents from various classes including azoles, allylamines, benzylamines, zinc pyrithione and piroctone olamine against both susceptible and resistant Trichophyton spp. (filamentous fungus) and Candida spp. (yeast).
(§3) Potentiation of the activity of antimycotic agents using ester derivatives of medium chain fatty acids was tested in a standard, well accepted in vitro assay system to check for synergy. This experimental set up, called checkerboard method, allows measurement of a desired effect (inhibition of fungal growth in this case) at different combinations of various concentrations of two agents. A chosen medium chain fatty acid (C-1 to C-14) or its ester derivative was tested for its ability to potentiate the activity of a known antifungal agent (various classes) using the checkerboard layout. Various concentrations above and below the MIC of each test agent were tested using serial dilution in Sabouraud dextrose broth. […] FIC values for both test agents in a particular well are calculated in this way followed by determination of the FIC index (sum of the FICs of each drug in the concerned well).

In experiment [2] the test system is Trichophyton rubrum (ATCC-28188). In words: Checkerboard assay of fatty acid/ester with antifungals on Trichophyton rubrum (ATCC 28188). It counts as cell-based. On the set-up: key to FIC index: FIC index = sum of FICs; FIC = agent conc in well / agent MIC. Conditions: for MIC: Trichophyton rubrum, ATCC28188, agent alone.
Experiment [3] deals with azole resistant C. albicans MTCC 227. Description: Checkerboard assay on azole resistant C. albicans MTCC 227. It is filed as cell-based, Candida albicans. Conditions: for MIC: Candida albicans, MTCC227, agent alone. The protocol: as §1, §2, §3
The mark [4] stands for this setting: agent's MIC in combination terbinafine or butenafine + caprylic acid.
[5] abbreviates: agent's MIC in combination terbinafine or butenafine + glyceryl monocaprylate.
Setting [6] is: combination terbinafine or butenafine + caprylic acid.
Where [7] appears, read: combination terbinafine or butenafine + glyceryl monocaprylate.
Where [8] appears, read: in combination with caprylic acid.
Setting [9] is: in combination with glyceryl monocaprylate.
[10] abbreviates: in combination with propylene glycol monocaprylate.
The mark [11] stands for this setting: agent's MIC in combination antifungal + caprylic acid (partner: other agent of same combination no.).
The mark [12] stands for this setting: agent's MIC in combination antifungal + glyceryl monocaprylate (partner: other agent of same combination no.).
Setting [13] is: agent's MIC in combination antifungal + propylene glycol monocaprylate (partner: other agent of same combination no.).
[14] abbreviates: antifungal in combination with caprylic acid.
The mark [15] stands for this setting: antifungal in combination with glyceryl monocaprylate.
Where [16] appears, read: antifungal in combination with propylene glycol monocaprylate.
The mark [17] stands for this setting: combination antifungal + caprylic acid.
Where [18] appears, read: combination antifungal + glyceryl monocaprylate.
Where [19] appears, read: combination antifungal + propylene glycol monocaprylate.
Where [20] appears, read: Table 12, undecylenic acid (C11) series.
Setting [21] is: Table 13, lauric acid (C12) series.
The mark [22] stands for this setting: antifungal in combination with lauric acid.
Setting [23] is: antifungal in combination with propylene glycol monolaurate.
[24] abbreviates: antifungal in combination with undecylenic acid.

Usually MIC stands for the smallest concentration in the dilution series that meets the test's criterion for growth inhibition. For `CN(Cc1ccc(C(C)(C)C)cc1)Cc1cccc2ccccc12` [Butenafine], in experiment [1] (agent alone, Table 7), the minimum inhibitory concentration (MIC) is 7.5 µg/mL. In addition, the “Combination MIC” value was found to be 0.468 µg/mL in experiment [1] (setting [4]), 0.234 µg/mL in experiment [1] (setting [5]) and 0.117 µg/mL in experiment [1] (agent's MIC in combination terbinafine or butenafine + propylene glycol monocaprylate). Also, the FIC was 0.0625 in experiment [1] (setting [6]), 0.0312 in experiment [1] (setting [7]) and 0.016 in experiment [1] (combination terbinafine or butenafine + propylene glycol monocaprylate). Further, the FIC index came to 0.562 in experiment [1] (setting [8]), 0.531 in experiment [1] (setting [9]) and 0.516 in experiment [1] (setting [10]). Also, the Interaction entry in experiment [1] (setting [8]), in experiment [1] (setting [9]) and in experiment [1] (setting [10]) was “Synergistic (Combinations that gave FIC indices less than 1 were designated “synergistic”)” each time.
Turning to `CC(=O)N1CCN(c2ccc(OCC3COC(Cn4ccnc4)(c4ccc(Cl)cc4Cl)O3)cc2)CC1` (centres unmarked) [Ketoconazole], the MIC in experiment [2] (Table 1, caprylic acid series) amounted to 0.312 µg/mL; in experiment [2] (Table 2, propylene glycol monocaprylate series) it was 0.3 µg/mL; in experiment [2] (Table 3, glyceryl monocaprylate series) it was 0.321 µg/mL; in experiment [3] (Table 9, caprylic acid (C8) series), 64 µg/mL; in experiment [3] (Table 10, propylene glycol monocaprylate series), 128 µg/mL; in experiment [3] (Table 11, glyceryl monocaprylate series), 128 µg/mL. The minimum inhibitory concentration (MIC) turned out to be 128 µg/mL in experiment [3] (setting [20]); 64 µg/mL in experiment [3] (setting [21]); 128 µg/mL in experiment [3] (Table 14, propylene glycol monolaurate series). The “Combination MIC” value in experiment [2] (setting [11]) turned out to be 0.0781 µg/mL; in experiment [2] (setting [12]) it was 0.009 µg/mL; in experiment [2] (setting [13]), 0.0375 µg/mL; in experiment [3] (setting [11]) it was 0.25 µg/mL; in experiment [3] (setting [12]) it was 2 µg/mL; in experiment [3] (agent's MIC in combination antifungal + lauric acid (partner: other agent of same combination no.)), 0.25 µg/mL. For the same compound, the entries for the “Combination MIC” value in experiment [3] (setting [13]), in experiment [3] (agent's MIC in combination antifungal + propylene glycol monolaurate (partner: other agent of same combination no.)) and in experiment [3] (agent's MIC in combination antifungal + undecylenic acid (partner: other agent of same combination no.)) were 8 µg/mL, 32 µg/mL and 1 µg/mL, respectively. Further, the FIC index in experiment [2] (setting [14]) came to 0.5; in experiment [2] (setting [15]), 0.531; in experiment [2] (setting [16]), 0.625; in experiment [3] (setting [14]), 0.253; in experiment [3] (setting [15]), 0.265; in experiment [3] (setting [22]), 0.127. Besides, the results for the FIC index in experiment [3] (setting [16]), in experiment [3] (setting [23]) and in experiment [3] (setting [24]) were 0.187, 0.281 and 0.132, respectively. Further, the Interaction entry in experiment [2] (setting [14]), in experiment [2] (setting [15]), in experiment [2] (setting [16]), in experiment [3] (setting [14]), in experiment [3] (setting [15]) and in experiment [3] (setting [22]) was “Synergistic (Combinations that gave FIC indices less than 1 were designated “synergistic”)” throughout. Also, the Interaction result in experiment [3] (setting [16]), in experiment [3] (setting [23]) and in experiment [3] (setting [24]) was “Synergistic (Combinations that gave FIC indices less than 1 were designated “synergistic”)” each time. Also, the FIC in experiment [2] (setting [17]) is on record as 0.25; in experiment [2] (setting [18]) it was 0.031; in experiment [2] (setting [19]) it was 0.125; in experiment [3] (setting [17]), 0.003; in experiment [3] (setting [18]), 0.0156; in experiment [3] (combination antifungal + lauric acid) it was 0.003. Moreover, the FIC in experiment [3] (setting [19]) is listed as 0.0625; in experiment [3] (combination antifungal + propylene glycol monolaurate) it was 0.25; in experiment [3] (combination antifungal + undecylenic acid) it was 0.0078.
For the compound `CCCCCCCCCCCC(=O)O` [Lauric acid], the MIC in experiment [2] (Table 5, lauric acid (C12) series) is 15.6 µg/mL; in experiment [3] (setting [21]), 3120 µg/mL.
Take `CN(C/C=C/C#CC(C)(C)C)Cc1cccc2ccccc12` [Terbinafine]: in experiment [1] (agent alone, Table 7), the minimal inhibitory concentration (MIC) is 30 µg/mL. For the same compound, in experiment [1] (agent alone, Table 7), the “Agent MIC” value was determined as 15 µg/mL. Moreover, the “Combination MIC” value was 0.117 µg/mL in experiment [1] (setting [4]) and 0.468 µg/mL in experiment [1] (setting [5]). Besides, the values for the FIC in experiment [1] (setting [6]) and in experiment [1] (setting [7]) were 0.0078 and 0.0312, respectively. Moreover, the figures for the FIC index in experiment [1] (setting [8]) and in experiment [1] (setting [9]) were 0.5007 and 0.531, respectively. Also, the Interaction result in experiment [1] (setting [8]), in experiment [1] (setting [9]) and in experiment [1] (setting [10]) was “Synergistic (Combinations that gave FIC indices less than 1 were designated “synergistic”)” in each case.
`C=CCCCCCCCCC(=O)O` [Undecylenic acid]: the MIC in experiment [2] (Table 4, undecylenic acid (C11) series) amounted to 31.3 µg/mL; in experiment [3] (setting [20]), 500 µg/mL. The “Agent MIC” value in experiment [2] (agent alone, Table 4, undecylenic acid (C11) series) was determined as 62.5 µg/mL.
